Data as given in patent US20040010036A1, “N,N, -Substituted s-Aryl-Isothioureas, N,N,N, -Substituted s-Aryl-Isothioureas and combinatorial libraries thereof” (priority 2002, published 2004).

Tested on: Streptococcus pyogenes (ATCC# 97-03 14289)
Assay: Anti-microbial screen (percent inhibition of growth, OD 570 nm)
Type: cell-based
Settings: Spy4H: Streptococcus pyogenes, read at 4 hours, OD 570 nm; Conc 0.1776 mg ml
Experimental: Streptococcus pyogenes (ATCC# 97-03 14289) was grown in Todd Hewitt Broth (THB) (Difco Laboratories #0492-17-6) overnight until reaching an optical density of (OD=0.636@570 nm) by reading 0.1 ml in a 96 well microtiter plate in a Molecular Devices Thermomax. This preparation was kept frozen as stocks in 30% v/v glycerol in 1.5 ml aliquots at […] until use. Prior to experiments, 6 ml aliquots were thawed and diluted into 50 ml 2×THB. 60 ul of this dilution was added to 92 wells of microtiter plate. To three wells THB (200 ul) was added to serve as a blank and a sterility control. Test compounds in DMSO and appropriate concentrations of DMSO were added to Growth/Solvent Controls at 0 time. Plates were read at 0 time at 570 nm in the Molecular Devices plate reader to obtain compounds correction factors for insoluble or colored compounds. Plates were read again at 4 hours.
Percent inhibition is calculated with the following formula:
Color correct=O.D. 0 hr - Blank 0 hr)-(Solvent Control Ohr - Blank 0 hr) [formula]

Compound	inhibition of growth at 177.6 µg/mL [%]
Cc1ccc(CN(Cc2cccc(O)c2)/C(=N/c2ccccc2[N+](=O)[O-])Sc2ccc(C)cc2)cc1 [Cmpd 426]	67.4
COc1cccc(CCN(Cc2ccc(O)cc2)/C(=N/c2ccc(F)c(Cl)c2)Sc2ccccc2)c1 [Cmpd 894]	57.7
Cc1ccc(S/C(=N\Cc2ccc(F)cc2)N(CCc2ccc(Cl)cc2)Cc2cccc(O)c2)c(C)c1 [Cmpd 284]	64
Cc1ccc(S/C(=N\c2cc(Cl)cc(Cl)c2)N(Cc2ccc(O)cc2)Cc2cccc(Cl)c2)cc1 [Cmpd 173]	70.7
Cc1ccc(S/C(=N\c2ccc(C(F)(F)F)cc2)N(CCc2ccc(Cl)cc2)Cc2cccc(O)c2)c(C)c1 [Cmpd 287]	97.7
COc1cccc(S/C(=N\c2cccc(F)c2)N(CCc2ccc(F)cc2)Cc2cccc(O)c2)c1 [Cmpd 923]	63.9
COc1cccc(CN(Cc2ccc(O)cc2)/C(=N/c2cc(Cl)cc(Cl)c2)Sc2cccc(C)c2)c1 [Cmpd 1093]	87.1
Cc1ccc(S/C(=N\c2ccc(C(F)(F)F)cc2)N(Cc2ccc(O)cc2)Cc2cccc(Cl)c2)cc1 [Cmpd 167]	71
CCCCN(Cc1cccc(O)c1)/C(=N\c1ccc(F)c(F)c1)Sc1ccccc1 [Cmpd 756]	71.9
CCCCN(Cc1cccc(O)c1)/C(=N\Cc1ccc(F)cc1)Sc1ccccc1 [Cmpd 724]	83.3
Cc1ccc(S/C(=N\Cc2ccccc2)N(Cc2cccc(O)c2)CC2CCCCC2)c(C)c1 [Cmpd 1241]	68.2
COc1cccc(S/C(=N\c2ccc(C)c(Cl)c2)N(CCc2ccc(F)cc2)Cc2cccc(O)c2)c1 [Cmpd 935]	66.3
COc1ccc(C)cc1/N=C(\Sc1ccc(C)cc1)N(Cc1ccc(O)cc1)Cc1cccc(Cl)c1 [Cmpd 189]	61.8
COc1cccc(S/C(=N/c2ccc(Cl)c([N+](=O)[O-])c2)N(Cc2ccc(C)cc2)Cc2ccc(O)cc2)c1 [Cmpd 143]	93.6
COc1cccc(S/C(=N\Cc2ccc(F)cc2)N(CCc2ccc(Cl)cc2)Cc2ccc(O)cc2)c1 [Cmpd 364]	66.9
CCCCN(Cc1cccc(O)c1)/C(=N\c1ccc(Cl)c([N+](=O)[O-])c1)Sc1ccccc1 [Cmpd 743]	64.2
COc1ccc(C)cc1/N=C(\Sc1ccc(C)cc1)N(Cc1ccc(C)cc1)Cc1cccc(O)c1 [Cmpd 429]	79.5
Cc1ccc(CN(Cc2ccc(O)cc2)/C(=N/c2ccc(Cl)c(Cl)c2)Sc2ccc(C)cc2C)cc1 [Cmpd 8]	57.5
Cc1ccc(CN(Cc2ccc(O)cc2)/C(=N\c2ccc(C(F)(F)F)cc2)Sc2ccc(C)cc2C)cc1 [Cmpd 7]	63.7
Cc1ccc(CN(Cc2cccc(O)c2)/C(=N/Cc2ccc(F)cc2)Sc2ccc(C)cc2C)cc1 [Cmpd 204]	69.1
Cc1ccc(S/C(=N/c2ccc(F)c(F)c2)N(Cc2ccc(O)cc2)CC(C)C)cc1 [Cmpd 276]	62.1

Compound	inhibition of growth at 177.6 µg/mL [%]
COc1cccc(S/C(=N\c2ccc(C(F)(F)F)cc2)N(Cc2ccc(O)cc2)Cc2ccc(Cl)c(Cl)c2)c1 [Cmpd 47]	85.8
COCCN(Cc1cccc(O)c1)/C(=N\c1cccc(Cl)c1)Sc1ccc(C)cc1C [Cmpd 92]	59.8
COCCN(Cc1cccc(O)c1)/C(=N\c1ccc(Cl)c(C(F)(F)F)c1)Sc1ccc(C)cc1C [Cmpd 113]	59.8
Cc1ccc(S/C(=N/c2ccc(F)c([N+](=O)[O-])c2)N(Cc2cccc(O)c2)CC2CCCCC2)c(C)c1 [Cmpd 1262]	67.2
COc1ccc(C)cc1/N=C(\Sc1cccc(C)c1)N(Cc1ccccc1)Cc1cccc(O)c1 [Cmpd 1149]	76
CCCCN(Cc1cccc(O)c1)/C(=N\c1ccc(F)c(Cl)c1)Sc1ccccc1 [Cmpd 734]	89.6
COc1cccc(CN(Cc2cccc(O)c2)/C(=N/c2cc(Cl)cc(Cl)c2)Sc2cccc(OC)c2)c1 [Cmpd 333]	67.2
COc1ccc(C)cc1/N=C(\Sc1ccccc1)N(Cc1cccc(O)c1)Cc1ccc(Cl)c(Cl)c1 [Cmpd 869]	62.2
Cc1cccc(S/C(=N/c2ccc(Cl)c([N+](=O)[O-])c2)N(Cc2ccccc2)Cc2cccc(O)c2)c1 [Cmpd 1143]	97.1
COc1cccc(S/C(=N\c2cc(Cl)cc(Cl)c2)N(Cc2ccc(C)cc2)Cc2ccc(O)cc2)c1 [Cmpd 133]	94.3
COc1ccc(C)cc1/N=C(\Sc1ccc(C)cc1C)N(Cc1ccc(C)cc1)Cc1cccc(O)c1 [Cmpd 229]	65.8
O=[N+]([O-])c1ccccc1/N=C(\Sc1ccccc1)N(Cc1cccc(O)c1)Cc1ccc(Cl)c(Cl)c1 [Cmpd 866]	60.8
Cc1cccc(S/C(=N\c2cccc(C(F)(F)F)c2)N(CCc2ccc(Cl)cc2)Cc2cccc(O)c2)c1 [Cmpd 686]	68.4
Cc1ccc(S/C(=N\c2ccc(Cl)cc2)N(Cc2cccc(O)c2)CC2CCCCC2)c(C)c1 [Cmpd 1265]	88.3
COc1cccc(CN(Cc2cccc(O)c2)/C(=N/c2ccc(Cl)c(Cl)c2)Sc2cccc(OC)c2)c1 [Cmpd 328]	98.9
Cc1ccc(S/C(=N\c2ccc(F)c(F)c2)N(Cc2cccc(O)c2)CC2CCCCC2)c(C)c1 [Cmpd 1276]	57.3
COCCN(Cc1ccc(O)cc1)/C(=N\c1cc(Cl)cc(Cl)c1)Sc1ccc(C)cc1C [Cmpd 1053]	66
Cc1ccc(CN(Cc2cccc(O)c2)/C(=N/c2ccc(Cl)c([N+](=O)[O-])c2)Sc2cccc(C)c2)cc1 [Cmpd 463]	86.7
Cc1ccc(S/C(=N/c2ccc(C(F)(F)F)cc2)N(Cc2ccccc2)Cc2ccc(O)cc2)c(C)c1 [Cmpd 487]	82.8
Cc1ccc(CN(Cc2cccc(O)c2)/C(=N/c2ccccc2[N+](=O)[O-])Sc2ccc(C)cc2C)cc1 [Cmpd 226]	74.4

Same assay, conditions: Streptococcus pyogenes; Assay Spy4H; Conc 0.1776 mg ml; plates read at 570 nm at 0 time and at 4 hours

Compound	inhibition of growth at 177.6 µg/mL [%]
Cc1ccc(S/C(=N/c2ccc(Cl)c([N+](=O)[O-])c2)N(Cc2ccc(O)cc2)CC(C)C)cc1 [Cmpd 263]	53.8
COc1cccc(S/C(=N\Cc2ccc(F)cc2)N(Cc2ccc(C)cc2)Cc2ccc(O)cc2)c1 [Cmpd 124]	55.6
COc1ccc(C)cc1/N=C(\Sc1ccc(C)cc1C)N(Cc1ccc(C)cc1)Cc1ccc(O)cc1 [Cmpd 29]	53.7
Cc1ccc(S/C(=N/c2ccc(F)c(Cl)c2)N(Cc2ccc(O)cc2)CC(C)C)cc1 [Cmpd 254]	49.2
Oc1cccc(CN(Cc2ccc(Cl)c(Cl)c2)/C(=N/c2ccc(F)c(Cl)c2)Sc2ccccc2)c1 [Cmpd 854]	55.8
COc1cccc(/N=C(\Sc2cccc(OC)c2)N(CCc2ccc(F)cc2)Cc2cccc(O)c2)c1 [Cmpd 936]	56.3
COc1cccc(S/C(=N\c2ccc(Cl)c([N+](=O)[O-])c2)N(CCc2ccc(F)cc2)Cc2cccc(O)c2)c1 [Cmpd 943]	50.8
Cc1ccc(S/C(=N\c2cc(Cl)cc(Cl)c2)N(Cc2ccccc2)Cc2ccc(O)cc2)c(C)c1 [Cmpd 493]	55.6
COc1cccc(CN(Cc2cccc(O)c2)/C(=N/c2ccc(F)c(Cl)c2)Sc2cccc(OC)c2)c1 [Cmpd 334]	50.6
Cc1ccc(CN(Cc2cccc(O)c2)/C(=N\c2ccc(Cl)c(C(F)(F)F)c2)Sc2ccc(C)cc2)cc1 [Cmpd 433]	51.7
COc1cccc(CN(Cc2cccc(O)c2)/C(=N/c2ccc(C(F)(F)F)cc2)Sc2cccc(OC)c2)c1 [Cmpd 327]	56.7
COCCN(Cc1ccc(O)cc1)/C(=N\c1ccc(Cl)c(C(F)(F)F)c1)Sc1ccc(C)cc1C [Cmpd 1073]	54.4
COc1cccc(S/C(=N/c2ccc(OC(F)(F)F)cc2)N(Cc2ccc(O)cc2)Cc2ccc(Cl)c(Cl)c2)c1 [Cmpd 75]	52.3
COc1cccc(S/C(=N\c2ccc(F)c(F)c2)N(CCc2ccc(Cl)cc2)Cc2ccc(O)cc2)c1 [Cmpd 396]	54.2
Cc1ccc(S/C(=N\c2ccc(F)c(Cl)c2)N(CCc2ccc(Cl)cc2)Cc2cccc(O)c2)c(C)c1 [Cmpd 294]	56.6
COCCN(Cc1ccc(O)cc1)/C(=N\c1ccccc1F)Sc1ccc(C)cc1C [Cmpd 1067]	53
Cc1cccc(S/C(=N\c2ccc(Cl)c(Cl)c2)N(Cc2ccccc2)Cc2cccc(O)c2)c1 [Cmpd 1128]	51.5
COc1cccc(S/C(=N\c2cccc(F)c2)N(CCc2ccc(Cl)cc2)Cc2ccc(O)cc2)c1 [Cmpd 363]	50.3
COc1cccc(S/C(=N\c2cccc(C(F)(F)F)c2)N(CCc2ccc(Cl)cc2)Cc2ccc(O)cc2)c1 [Cmpd 366]	49.1
COc1ccc(C)cc1/N=C(\Sc1cccc(C)c1)N(CCc1ccc(Cl)cc1)Cc1cccc(O)c1 [Cmpd 709]	49.7
COc1cccc(S/C(=N/c2ccc(Cl)c(C(F)(F)F)c2)N(CCc2ccc(F)cc2)Cc2cccc(O)c2)c1 [Cmpd 953]	54.2
Cc1cccc(C/N=C(\Sc2ccc(C)cc2C)N(Cc2cccc(O)c2)CC2CCCCC2)c1 [Cmpd 1242]	54.8
